# US20250375398A1
# Like-named read-outs stand apart in the source and are kept apart here.
# Columns and labels:
# [1] = system: SARS-CoV-2 virus [B.1.351]; format: in vivo, mice
# SARS-CoV-2 [2] = format: cell-based; settings: remdesivir alone, dose-dependent; control around 10^6 TCID50/mL
# [3] = system: SARS-CoV-2 virus [B.1.351]; format: in vivo, mice; settings: day 4
# SARS-CoV-2 [4] = settings: for host cell viability, normalized to remdesivir alone (5 μM) / host cell viability (in words): infected Vero E6, 72 hours
# SARS-CoV-2 [5] = test: microbe, parasite or virus in culture
structure (smiles),measurement,setting,value
CCC(CC)COC(=O)[C@H](C)N[P@](=O)(OC[C@H]1O[C@@](C#N)(c2ccc3c(N)ncnn23)[C@H](O)[C@@H]1O)Oc1ccccc1 [Remdesivir],"infectious titers in lung, in words","[1]; remdesivir 25 mg/kg daily intraperitoneally, day 4 post infection",strongest antiviral effect in reducing infectious titer
same,"infectious titers in lung (plaque forming unit per mg of tissues), in words","[1]; remdesivir 5, 10 or 25 mg/kg daily intraperitoneally from day 1 post infection, day 4",dose-dependent effect on reducing infectious titers
same,viral titer of SARS-CoV-2,SARS-CoV-2 [2],zero
same,"infectious titers in lung compared to vehicle, in words",[3]; Remdesivir 10 mg/kg daily from day 1 post infection,did not impact infectious titers compared to vehicle
same,mice in which all infectious titers in lung were eliminated,[3]; Remdesivir 25 mg/kg daily from day 1 post infection,4 out of 7
same,"host cell viability, normalized to remdesivir alone (5 μM)","SARS-CoV-2 [4]; hypericin 0 μM, remdesivir 0.3125 μM",19.8%
same,"host cell viability, normalized to remdesivir alone (5 μM)","SARS-CoV-2 [4]; hypericin 0 μM, remdesivir 0.625 μM",21.9%
same,"host cell viability, normalized to remdesivir alone (5 μM)","SARS-CoV-2 [4]; hypericin 0 μM, remdesivir 1.25 μM",25.2%
same,"host cell viability, normalized to remdesivir alone (5 μM)","SARS-CoV-2 [4]; hypericin 0 μM, remdesivir 2.5 μM",38.1%
same,host cell viability (in words),SARS-CoV-2 [4]; remdesivir (5 μM) alone,dose-dependently improved host cell viability
same,viability at 5 µM,"SARS-CoV-2 [5]; Severe acute respiratory syndrome coronavirus 2, Vero C1008, 72 h, read-out: host cell viability, normalized to remdesivir alone (5 μM)",100%
same,viability at 1.25 µM,"SARS-CoV-2 [5]; Severe acute respiratory syndrome coronavirus 2, Vero C1008, read-out: host cell viability",26%
Cc1cc(O)c2c(=O)c3c(O)cc(O)c4c5c(O)cc(O)c6c(=O)c7c(O)cc(C)c8c1c2c(c34)c(c78)c65 [Hypericin],mice in which all infectious titers in lung were eliminated,"[3]; Hypericin 20 mg/kg, pre-treatment from two days prior to infection",5 out of 7
same,"host cell viability, normalized to remdesivir alone (5 μM)","SARS-CoV-2 [4]; hypericin 1.563 μM, remdesivir 0 μM",14.6%
same,"host cell viability, normalized to remdesivir alone (5 μM)","SARS-CoV-2 [4]; hypericin 3.125 μM, remdesivir 0 μM",12.9%
same,"host cell viability, normalized to remdesivir alone (5 μM)","SARS-CoV-2 [4]; hypericin 6.25 μM, remdesivir 0 μM",12.8%
same,"host cell viability, normalized to remdesivir alone (5 μM)","SARS-CoV-2 [4]; hypericin 12.5 μM, remdesivir 0 μM",20.4%
same,"host cell viability, normalized to remdesivir alone (5 μM)","SARS-CoV-2 [4]; hypericin 25 μM, remdesivir 0 μM",62.0%
same,"host cell viability, normalized to remdesivir alone (5 μM)","SARS-CoV-2 [4]; hypericin 50 μM, remdesivir 0 μM",62.6%
same,"host cell viability, normalized to remdesivir alone (5 μM)","SARS-CoV-2 [4]; hypericin 100 μM, remdesivir 0 μM",38.0%
same,host cell viability (in words),SARS-CoV-2 [4]; hypericin (25-50 μM) alone,modest improvements in host cell viability
same,host cell viability,"SARS-CoV-2 [4]; hypericin alone, 12.5-50 μM",20-62%
